Results from patent US9115139B2, “Pyrazinooxazepine derivatives” (TAKEDA PHARMACEUTICAL COMPANY LIMITED, priority 2009, dated 2015).

Each compound was assayed against serotonin 5-HT2C receptor (VSV type isoform, stably expressing CHO cell) (Homo sapiens, UniProt P28335, I156V/I160V/N158S).
Assay type: cell-based

serotonin 5-HT2C receptor (VSV type isoform, stably expressing CHO cell), sequence (P28335 33-458 I156V/N158S/I160V limits assumed): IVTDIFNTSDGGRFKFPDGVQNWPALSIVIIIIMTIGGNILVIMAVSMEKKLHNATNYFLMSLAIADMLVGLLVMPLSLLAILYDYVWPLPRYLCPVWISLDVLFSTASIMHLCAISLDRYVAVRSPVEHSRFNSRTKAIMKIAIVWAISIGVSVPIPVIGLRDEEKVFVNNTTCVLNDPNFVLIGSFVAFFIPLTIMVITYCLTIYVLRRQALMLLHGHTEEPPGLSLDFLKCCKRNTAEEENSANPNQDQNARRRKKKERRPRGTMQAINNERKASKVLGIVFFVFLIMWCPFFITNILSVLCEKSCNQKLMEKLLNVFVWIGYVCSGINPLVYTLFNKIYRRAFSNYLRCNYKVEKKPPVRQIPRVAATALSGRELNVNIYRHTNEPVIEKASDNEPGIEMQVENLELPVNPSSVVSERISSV

In order of rising “ratio (%) relative to maximum response by 5-HT (1 μM)” value:
1. Cl.c1nc2c(nc1C1CC1)OCCNC2 [Example 10, 3-cyclopropyl-6,7,8,9-tetrahydropyrazino[2,3-f][1,4]oxazepine hydrochloride]  89%
2. CC(C)Oc1cnc2c(n1)OCCNC2.Cl [Example 2, 3-(1-methylethoxy)-6,7,8,9-tetrahydropyrazino[2,3-f][1,4]oxazepine hydrochloride]  93%
3. C[C@@H]1COCCN1c1cnc2c(n1)OCCNC2.Cl [Example 5, 3-[(3R)-3-methylmorpholin-4-yl]-6,7,8,9-tetrahydropyrazino[2,3-f][1,4]oxazepine hydrochloride]  95%
4. CC(C)N(C)c1cnc2c(n1)OCCNC2.Cl [Example 8, N-methyl-N-(1-methylethyl)-6,7,8,9-tetrahydropyrazino[2,3-f][1,4]oxazepin-3-amine hydrochloride]  95%
